From paper PMC9143591, “The Chemical Constituents of Diaphragma Juglandis Fructus and Their Inhibitory Effect on α-Glucosidase Activity” (Molecules, 2022)

Biological target: α-glucosidase (Saccharomyces cerevisiae, UniProt P53341)
Experiment: α-Glucosidase inhibitory assay
Assay type: biochemical
Conditions: in vitro
Method: Alpha-glucosidase is an enzyme that hydrolyzes the carbohydrates to monosaccharides in the final step of carbohydrate digestion. […] In order to search for bioactive substances to treat type 2 diabetes using Diaphragma juglandis Fructus, all isolated constituents (1–37) were assessed for antidiabetic activity using an in vitro α-glycosidase inhibition assay.
The α-glucosidase was obtained from Sigma-Aldrich (Shanghai) Trading Co., Ltd (Shanghai, China). p-nitrophenyl-α-D-glucopyranoside was obtained from Macklin Co., Ltd. (Lot# C12592180, Shanghai, China).
The α-glucosidase inhibition assay was performed according to a previous report with a slight difference: the concentration of α-glucosidase was diluted to 0.15 unit/mL. The volume of α-glucosidase added to the 96-well plate was 10 μL.

α-glucosidase, sequence (P53341 whole entry): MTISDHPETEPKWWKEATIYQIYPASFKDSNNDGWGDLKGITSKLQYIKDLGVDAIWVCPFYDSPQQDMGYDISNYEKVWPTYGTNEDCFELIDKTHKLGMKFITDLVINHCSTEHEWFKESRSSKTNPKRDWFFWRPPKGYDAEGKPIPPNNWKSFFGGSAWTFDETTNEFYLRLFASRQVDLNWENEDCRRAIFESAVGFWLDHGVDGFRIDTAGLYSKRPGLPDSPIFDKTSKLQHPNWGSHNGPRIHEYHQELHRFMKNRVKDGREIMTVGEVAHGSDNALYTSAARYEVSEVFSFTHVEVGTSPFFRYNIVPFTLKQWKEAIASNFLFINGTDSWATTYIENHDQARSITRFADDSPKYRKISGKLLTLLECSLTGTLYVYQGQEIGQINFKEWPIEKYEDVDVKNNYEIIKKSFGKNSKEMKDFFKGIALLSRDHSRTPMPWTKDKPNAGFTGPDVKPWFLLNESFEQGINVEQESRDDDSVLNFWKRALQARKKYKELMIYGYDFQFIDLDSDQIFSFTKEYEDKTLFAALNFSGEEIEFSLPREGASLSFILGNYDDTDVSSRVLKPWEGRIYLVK

| Compound | α-glucosidase inhibition activity (in words) |
| --- | --- |
| O=C1c2c(O)cc(O)cc2OC(c2ccc(O)c(O)c2)C1O (stereo not shown) [Compound 13, taxifolin] | quite potent |
| Oc1cc(O)c2c(c1)O[C@@H](c1ccc(O)c(O)c1)[C@H](O)C2 [Compound 16, (+)-catechin] | quite potent |
| O=c1cc(-c2ccc(O)c(O)c2)oc2cc(O)cc(O)c12 [Compound 28, luteolin] | quite potent |
| O=c1c(O)c(-c2ccc(O)c(O)c2)oc2cc(O)cc(O)c12 [Compound 21, quercetin] | quite potent |
